Results taken from ChEMBL document CHEMBL1201862, “PubChem BioAssay data set” (2004).
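1) Cells in 96-well plates. 2) Compound, 48 h, 5 concentrations. 3) Linear interpolation between surrounding doses. 4) Unreached endpoint = highest concentration. Here, GI50 denotes the concentration required for 50% inhibition of growth.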 Active and inactive are the calls of the source. Cut-off read from the data, not from the text of the source: active = GI50 up to about 1.1 µM and inactive = higher.

Legend:
Assay in all cases: DTP human tumour cell line panel, 48 h
T47D = system: T47D
CCRF-CEM = system: CCRF-CEM
HT-29 = system: HT-29
K562 = system: K562
RXF 393 = system: RXF 393
SF-295 = system: SF-295
A549 = system: A549
UO-31 = system: UO-31
SNB-19 = system: SNB-19
TK-10 = system: TK-10
KM12 = system: KM12
NCI-H460 = system: NCI-H460
NCI-H226 = system: NCI-H226
LOX IMVI = system: LOX IMVI
DU-145 = system: DU-145
786-0 = system: 786-0
SK-MEL-2 = system: SK-MEL-2
EKVX = system: EKVX
SF-539 = system: SF-539
OVCAR-5 = system: OVCAR-5

SMILES	GI50 (T47D)	GI50 (CCRF-CEM)	GI50 (HT-29)	GI50 (K562)	GI50 (RXF 393)	GI50 (SF-295)	GI50 (A549)	GI50 (UO-31)	GI50 (SNB-19)	GI50 (TK-10)	GI50 (KM12)	GI50 (NCI-H460)	GI50 (NCI-H226)	GI50 (LOX IMVI)	GI50 (DU-145)	GI50 (786-0)	GI50 (SK-MEL-2)	GI50 (EKVX)	GI50 (SF-539)	GI50 (OVCAR-5)
Cc1ccc(S(=O)(=O)N2CCCN(S(=O)(=O)c3ccc(C)cc3)CC2)cc1	> 100 µM (inactive)	> 100 µM (inactive)	> 100 µM (inactive)	> 100 µM (inactive)	> 100 µM (inactive)	> 100 µM (inactive)	> 10 µM (inactive)	> 100 µM (inactive)	> 100 µM (inactive)	> 100 µM (inactive)	> 100 µM (inactive)	> 100 µM (inactive)	> 100 µM (inactive)	0.0578 µM (active)	> 100 µM (inactive)	–	–	–	–	–
Cn1c(CO)ccc1-c1ccc(-c2ccc(CO)[se]2)[se]1	11.9 µM (inactive)	1.8 µM (inactive)	37.7 µM (inactive)	1.35 µM (inactive)	> 26.2 µM (inactive)	> 76.4 µM (inactive)	15.4 µM (inactive)	> 100 µM (inactive)	> 63.4 µM (inactive)	0.0376 µM (active)	21.4 µM (inactive)	18.4 µM (inactive)	0.408 µM (active)	16.2 µM (inactive)	12.9 µM (inactive)	9.04 µM (inactive)	7.59 µM (inactive)	48.1 µM (inactive)	67 µM (inactive)	–
C=C1C(=O)O[C@H]2C/C(C=O)=C\[C@H]3O[C@H]3/C(COC(=O)C(C)C)=C/CC12 (stereo partly specified)	3.54 µM (inactive)	1.83 µM (inactive)	3.07 µM (inactive)	2.9 µM (inactive)	3.49 µM (inactive)	25.6 µM (inactive)	16.9 µM (inactive)	5.58 µM (inactive)	15.8 µM (inactive)	11.8 µM (inactive)	5.46 µM (inactive)	10.5 µM (inactive)	21.4 µM (inactive)	3.21 µM (inactive)	11.1 µM (inactive)	2.9 µM (inactive)	–	16.3 µM (inactive)	21.5 µM (inactive)	2.01 µM (inactive)
O=C1CCC(NC(=O)c2ccccc2)C(=O)N1 (stereo unspecified)	> 100 µM (inactive)	–	> 100 µM (inactive)	–	> 100 µM (inactive)	> 100 µM (inactive)	> 100 µM (inactive)	> 100 µM (inactive)	> 100 µM (inactive)	> 100 µM (inactive)	> 100 µM (inactive)	> 100 µM (inactive)	> 100 µM (inactive)	> 100 µM (inactive)	> 100 µM (inactive)	> 100 µM (inactive)	> 100 µM (inactive)	> 100 µM (inactive)	> 100 µM (inactive)	> 100 µM (inactive)
Cc1c(-c2ccccc2)[nH]c2cc(Cl)ccc2c1=O	> 100 µM (inactive)	> 100 µM (inactive)	> 100 µM (inactive)	16.4 µM (inactive)	18.6 µM (inactive)	–	1.96 µM (inactive)	0.0135 µM (active)	52.8 µM (inactive)	38 µM (inactive)	0.74 µM (active)	0.631 µM (active)	21.1 µM (inactive)	89.5 µM (inactive)	> 100 µM (inactive)	–	37.8 µM (inactive)	> 100 µM (inactive)	39.8 µM (inactive)	> 100 µM (inactive)
COc1cc(/C=C(\C#N)c2nc3ccccc3o2)ccc1O	13.3 µM (inactive)	26.3 µM (inactive)	22.3 µM (inactive)	35.4 µM (inactive)	39.5 µM (inactive)	17.6 µM (inactive)	17.8 µM (inactive)	25.5 µM (inactive)	32.4 µM (inactive)	24.4 µM (inactive)	17.6 µM (inactive)	15 µM (inactive)	15.4 µM (inactive)	–	25.6 µM (inactive)	24.9 µM (inactive)	18 µM (inactive)	21.6 µM (inactive)	12 µM (inactive)	22 µM (inactive)
CCc1nc2cc3cccnc3c(Cl)c2[nH]c1=O	63.4 µM (inactive)	> 100 µM (inactive)	> 100 µM (inactive)	> 100 µM (inactive)	31.8 µM (inactive)	> 100 µM (inactive)	> 100 µM (inactive)	> 100 µM (inactive)	58.3 µM (inactive)	89.5 µM (inactive)	> 100 µM (inactive)	> 100 µM (inactive)	> 100 µM (inactive)	> 100 µM (inactive)	> 100 µM (inactive)	79.8 µM (inactive)	> 100 µM (inactive)	> 100 µM (inactive)	–	> 100 µM (inactive)
Oc1cc(Cl)cc2cccnc12	2.25 µM (inactive)	0.288 µM (active)	9.31 µM (inactive)	0.396 µM (active)	3.02 µM (inactive)	0.288 µM (active)	0.998 µM (active)	0.847 µM (active)	5.94 µM (inactive)	57.5 µM (inactive)	4.78 µM (inactive)	1.44 µM (inactive)	6.79 µM (inactive)	0.625 µM (active)	9.71 µM (inactive)	8.71 µM (inactive)	5.92 µM (inactive)	0.804 µM (active)	–	4.85 µM (inactive)
